# Test results from patent publication US9346809B2 (LEO PHARMA A/S, priority 2009, dated 2016).
# Like-named read-outs stand apart in the source and are kept apart here.
# Columns and labels:
# Type in all cases: biochemical
# [1] = biological target: T1, JAK3 (catalytic domain, His-tag) (Homo sapiens, UniProt P52333); assay: JAK kinase assay (HTRF, phosphorylation of TK substrate-biotin), JAK3; details: ATP at Km (2 μM), read-out: JAK3 kinase inhibitory activity (EC50 indicator)
# T1 construct: All four purified enzymes contain only the catalytic domain; His (N); purchased Carna Biosciences, Inc; host or cells: baculovirus expression system
# Outline: (§1)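 EC50 values come from HTRF detection of phospho-biotin-TK peptide (1 μM) after 20-30 min RT reactions in Hepes pH 7.0 buffer with 0.75% DMSO. ATP was at Km for each enzyme: 7 μM JAK1, 4 μM JAK2, 2 μM JAK3, 13 μM TYK2. SEB (50 nM) was added for JAK1 and TYK2 only.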
# [2] = biological target: T2, JAK1 (aa 850-1154, catalytic domain, GST-tag) (Homo sapiens, UniProt P23458); assay: JAK kinase assay (HTRF, phosphorylation of TK substrate-biotin), JAK1; details: ATP at Km (7 μM), read-out: JAK1 kinase inhibitory activity (EC50 indicator)
# T2 construct: JAK1 (aa 850-1154) and TYK2 (aa 871-1187) are expressed with an N-terminally fused GST-tag; GST (N); purchased Carna Biosciences, Inc; host or cells: baculovirus expression system
# Outline: as §1
# [3] = biological target: T3, JAK2 (catalytic domain, His-tag) (Homo sapiens, UniProt O60674); assay: JAK kinase assay (HTRF, phosphorylation of TK substrate-biotin), JAK2; details: ATP at Km (4 μM), read-out: JAK2 kinase inhibitory activity (EC50 indicator)
# T3 construct: All four purified enzymes contain only the catalytic domain; His (N); purchased Carna Biosciences, Inc; host or cells: baculovirus expression system
# Outline: as §1
# [4] = biological target: T4, TYK2 (aa 871-1187, catalytic domain, GST-tag) (Homo sapiens, UniProt P29597); assay: JAK kinase assay (HTRF, phosphorylation of TK substrate-biotin), TYK2; details: ATP at Km (13 μM), read-out: TYK2 kinase inhibitory activity (EC50 indicator)
# T4 construct: JAK1 (aa 850-1154) and TYK2 (aa 871-1187) are expressed with an N-terminally fused GST-tag; GST (N); purchased Carna Biosciences, Inc; host or cells: baculovirus expression system
# T4 sequence (P29597 871-1187): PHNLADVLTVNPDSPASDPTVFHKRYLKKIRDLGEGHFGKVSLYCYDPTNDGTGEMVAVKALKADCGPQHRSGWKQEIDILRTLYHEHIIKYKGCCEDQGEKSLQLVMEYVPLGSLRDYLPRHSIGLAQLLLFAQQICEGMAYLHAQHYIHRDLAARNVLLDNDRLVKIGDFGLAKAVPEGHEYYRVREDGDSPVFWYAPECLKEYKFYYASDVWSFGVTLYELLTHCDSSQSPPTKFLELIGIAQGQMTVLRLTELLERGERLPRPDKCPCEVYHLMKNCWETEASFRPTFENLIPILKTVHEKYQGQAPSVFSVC
# Outline: as §1
# T1 sequence (P52333 822-1111 limits assumed): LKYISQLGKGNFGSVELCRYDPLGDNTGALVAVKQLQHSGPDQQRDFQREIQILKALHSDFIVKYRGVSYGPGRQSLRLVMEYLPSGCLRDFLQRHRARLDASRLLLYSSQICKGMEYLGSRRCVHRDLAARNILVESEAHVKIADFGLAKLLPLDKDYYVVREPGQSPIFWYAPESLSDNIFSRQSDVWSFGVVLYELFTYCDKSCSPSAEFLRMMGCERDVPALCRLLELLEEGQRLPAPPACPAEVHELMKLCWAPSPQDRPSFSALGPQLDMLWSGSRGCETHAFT
# T3 sequence (O60674 849-1124 limits assumed): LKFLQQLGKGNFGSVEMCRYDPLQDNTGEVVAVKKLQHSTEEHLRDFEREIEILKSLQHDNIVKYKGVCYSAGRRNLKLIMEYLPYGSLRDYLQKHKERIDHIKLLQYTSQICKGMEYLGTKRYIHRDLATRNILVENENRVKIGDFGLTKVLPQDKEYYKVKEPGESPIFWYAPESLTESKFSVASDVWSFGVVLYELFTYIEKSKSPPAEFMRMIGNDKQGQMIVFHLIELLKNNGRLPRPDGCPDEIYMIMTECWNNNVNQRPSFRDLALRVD
# T2 sequence (P23458 850-1154): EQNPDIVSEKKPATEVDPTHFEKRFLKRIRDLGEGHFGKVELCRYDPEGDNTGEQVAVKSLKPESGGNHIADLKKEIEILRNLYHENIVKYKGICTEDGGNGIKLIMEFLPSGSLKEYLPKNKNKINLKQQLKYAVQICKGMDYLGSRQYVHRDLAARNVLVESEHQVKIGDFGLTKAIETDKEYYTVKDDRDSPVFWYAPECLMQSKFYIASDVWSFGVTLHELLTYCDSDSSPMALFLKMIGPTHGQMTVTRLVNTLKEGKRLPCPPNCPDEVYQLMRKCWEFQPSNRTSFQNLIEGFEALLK
EC50 [1] [nM],EC50 [2] [nM],EC50 [3] [nM],EC50 [4] [nM],EC50 ([1]; HTRF assay) [nM],EC50 ([2]; HTRF assay) [nM],EC50 ([3]; HTRF assay) [nM],EC50 ([4]; HTRF assay) [nM],Structure (SMILES)
100 to 500,< 100,< 100,> 500,,,,,"CC(C)S(=O)(=O)c1ccc(C(=O)N2CCN(c3ncnc4[nH]ccc34)CC23CC3)cc1 [Example 196, [4-(Propane-2-sulfonyl)-phenyl]-[7-(7H-pyrrolo[2,3-d]pyrimidin-4-yl)-4,7-diaza-spiro[2.5]oct-4-yl]-methanone]"
,,,,< 100,< 100,< 100,100 to 500,"O=C(Cc1cc(Br)cs1)N1CCN(c2ncnc3[nH]ccc23)CC12CC2 [Example 387, 2-(4-Bromo-thiophen-2-yl)-1-[7-(7H-pyrrolo[2,3-d]pyrimidin-4-yl)-4,7-diaza-spiro[2.5]oct-4-yl]-ethanone]"
,,,,< 100,< 100,< 100,< 100,"Cc1cc(C(=O)N2CCN(c3ncnc4[nH]ccc34)CC23CC3)ccc1S(N)(=O)=O [Example 380, 2-Methyl-4-[7-(7H-pyrrolo[2,3-d]pyrimidin-4-yl)-4,7-diaza-spiro[2.5]octane-4-carbonyl]-benzenesulfonamide]"
,,,,100 to 500,< 100,< 100,< 100,"CCc1sc(C(=O)N2CCN(c3ncnc4[nH]ccc34)CC23CC3)cc1Br [Example 209, (4-Bromo-5-ethyl-thiophen-2-yl)-[7-(7H-pyrrolo[2,3-d]pyrimidin-4-yl)-4,7-diaza-spiro[2.5]oct-4-yl]-methanone]"
100 to 500,100 to 500,100 to 500,> 500,,,,,"CS(=O)(=O)c1cccc(CC(=O)N2CCN(c3ncnc4[nH]ccc34)CC23CC3)c1 [Example 101, 2-(3-Methanesulfonyl-phenyl)-1-[7-(7H-pyrrolo[2,3-d]pyrimidin-4-yl)-4,7-diaza-spiro[2.5]oct-4-yl]-ethanone]"
,,,,< 100,< 100,< 100,100 to 500,"Cc1cnc(C(=O)N2CCN(c3ncnc4[nH]ccc34)CC23CC3)cn1 [Example 414, (5-Methyl-pyrazin-2-yl)-[7-(7H-pyrrolo[2,3-d]pyrimidin-4-yl)-4,7-diaza-spiro[2.5]oct-4-yl]-methanone]"
,,,,100 to 500,> 500,100 to 500,> 500,"COc1cnc2[nH]ccc2c1N1CCN(C(=O)c2cccc(C#N)c2)C2(CC2)C1 [Example 287, 3-[7-(5-Methoxy-1H-pyrrolo[2,3-b]pyridin-4-yl)-4,7-diaza-spiro[2.5]octane-4-carbonyl]-benzonitrile]"
> 500,100 to 500,100 to 500,> 500,,,,,"N#CCCN1CCCC(C(=O)N2CCN(c3ncnc4[nH]ccc34)CC23CC3)C1 (centres unmarked) [Example 95, 3-{3-[7-(7H-Pyrrolo[2,3-d]pyrimidin-4-yl)-4,7-diaza-spiro[2.5]octane-4-carbonyl]-piperidin-1-yl}-propionitrile]"
,,,,100 to 500,> 500,100 to 500,> 500,"COc1cnc2[nH]ccc2c1N1CCN(C(=O)c2ccccc2)C2(CC2)C1 [Example 283, [7-(5-Methoxy-1H-pyrrolo[2,3-b]pyridin-4-yl)-4,7-diaza-spiro[2.5]oct-4-yl]-phenyl-methanone]"
,,,,100 to 500,< 100,< 100,> 500,"Cc1ccc2sc(C(=O)N3[C@@H]4CC[C@H]3CN(c3ncnc5[nH]ccc35)C4)cc2c1 [Example 247, (5-Methyl-benzo[b]thiophen-2-yl)-[3-(7H-pyrrolo[2,3-d]pyrimidin-4-yl)-3,8-diaza-bicyclo[3.2.1]oct-8-yl]-methanone]"
,,,,< 100,< 100,< 100,< 100,"CNS(=O)(=O)c1csc(C(=O)N2CCN(c3ncnc4[nH]ccc34)CC23CC3)c1 [Example 373, 5-[7-(7H-Pyrrolo[2,3-d]pyrimidin-4-yl)-4,7-diaza-spiro[2.5]octane-4-carbonyl]-thiophene-3-sulfonic acid methylamide]"
